Patent US11072619B2, “Pyrazole[1,5-a] pyrimidine derivatives as kinase JAK inhibitors” (CELON PHARMA S.A., priority 2017, dated 2021)

Key:
Recombinant kinase JAK2 = Recombinant kinase JAK2 (Homo sapiens (Human), UniProt O60674); experiment: In vitro JAK kinase inhibition assay (ADP-Glo), JAK2; assay type: biochemical; conditions: 30 μM ATP, peptide IGF-1Rtide, averaged
Description: (§1) In Vitro JAK Kinase Inhibition Assay
(§2) The effects of the compounds of the invention were analysed in vitro using kinase JAK inhibition assay described below.
Tested compounds were dissolved in 100% DMSO, and obtained stock solutions were serially diluted in the reaction buffer (50 mM Tris pH 7.5, 10 mM MgCl2, 0.25 mM EGTA, 0.1 mM Na3VO4, 0.01% Triton X-100, 2.5 mM DTT). Recombinant kinases JAK1 (ProQinase), JAK2, or JAK3 (Carna Biosciences) were diluted in the dilution buffer (50 mM Tris-HCl pH 7.5, 150 mM NaCl, 10% glycerol, 0.05% Triton X-100, 1 mM DTT) to the final concentration 3 ng/μL (JAK1), 0.1 ng/μL (JAK2), or 0.2 ng/μL (JAK3). 5 μL of obtained solution of the compounds and 5 μL of the solution of respective kinases were added to the well of a 96-well plate. To initiate interaction between tested compounds and an enzyme, the plate was incubated for 10 minutes at 25° C. in a Plate-Thermo-Shaker with orbital stirring at 400 rpm. Wells of a negative control contained all reagents as mentioned above with the exception of tested compounds and kinase, and wells of a positive controls contained all reagents as mentioned above with the exception of tested compounds. […] Then the plate was incubated for 1 hour at 25° C. in a Plate-Thermo-Shaker, with orbital stirring at 400 rpm. Detection of ADP formed in the enzymatic reaction was then performed using ADP-Glo Kinase Assay kit (Promega). For this purpose, to the well of the 96-well plate 25 μL of ADP-Glo Reagent were added, and the plate was incubated for 40 minutes at 25° C. in a Plate-Thermo-Shaker with orbital stirring at 400 rpm. Then to the well of the 96-well plate 50 μL of Kinase Detection Reagent were added and the plate was incubated for 30 minutes at 25° C. in a Plate-Thermo-Shaker with orbital stirring at 400 rpm. After incubation, luminescence intensity was measured using Victor×Light luminometer (Perkin Elmer, Inc.).
(§3) On the basis of luminescence measurement in wells containing tested compounds at various concentrations and in control wells, IC50 values were determined. These values were determined with Graph Pad software v. 5.03, by fitting points of the curve using non-linear regression method. Each compound was tested in at least 6 repetitions (6 wells) on two 96-well plates, using at least 3 wells of each control.

Recombinant kinase JAK3 = Recombinant kinase JAK3 (Homo sapiens (Human), UniProt P52333); experiment: In vitro JAK kinase inhibition assay (ADP-Glo), JAK3; assay type: biochemical; conditions: 30 μM ATP, peptide IGF-1Rtide, averaged
Chain of Recombinant kinase JAK3 (P52333 whole entry): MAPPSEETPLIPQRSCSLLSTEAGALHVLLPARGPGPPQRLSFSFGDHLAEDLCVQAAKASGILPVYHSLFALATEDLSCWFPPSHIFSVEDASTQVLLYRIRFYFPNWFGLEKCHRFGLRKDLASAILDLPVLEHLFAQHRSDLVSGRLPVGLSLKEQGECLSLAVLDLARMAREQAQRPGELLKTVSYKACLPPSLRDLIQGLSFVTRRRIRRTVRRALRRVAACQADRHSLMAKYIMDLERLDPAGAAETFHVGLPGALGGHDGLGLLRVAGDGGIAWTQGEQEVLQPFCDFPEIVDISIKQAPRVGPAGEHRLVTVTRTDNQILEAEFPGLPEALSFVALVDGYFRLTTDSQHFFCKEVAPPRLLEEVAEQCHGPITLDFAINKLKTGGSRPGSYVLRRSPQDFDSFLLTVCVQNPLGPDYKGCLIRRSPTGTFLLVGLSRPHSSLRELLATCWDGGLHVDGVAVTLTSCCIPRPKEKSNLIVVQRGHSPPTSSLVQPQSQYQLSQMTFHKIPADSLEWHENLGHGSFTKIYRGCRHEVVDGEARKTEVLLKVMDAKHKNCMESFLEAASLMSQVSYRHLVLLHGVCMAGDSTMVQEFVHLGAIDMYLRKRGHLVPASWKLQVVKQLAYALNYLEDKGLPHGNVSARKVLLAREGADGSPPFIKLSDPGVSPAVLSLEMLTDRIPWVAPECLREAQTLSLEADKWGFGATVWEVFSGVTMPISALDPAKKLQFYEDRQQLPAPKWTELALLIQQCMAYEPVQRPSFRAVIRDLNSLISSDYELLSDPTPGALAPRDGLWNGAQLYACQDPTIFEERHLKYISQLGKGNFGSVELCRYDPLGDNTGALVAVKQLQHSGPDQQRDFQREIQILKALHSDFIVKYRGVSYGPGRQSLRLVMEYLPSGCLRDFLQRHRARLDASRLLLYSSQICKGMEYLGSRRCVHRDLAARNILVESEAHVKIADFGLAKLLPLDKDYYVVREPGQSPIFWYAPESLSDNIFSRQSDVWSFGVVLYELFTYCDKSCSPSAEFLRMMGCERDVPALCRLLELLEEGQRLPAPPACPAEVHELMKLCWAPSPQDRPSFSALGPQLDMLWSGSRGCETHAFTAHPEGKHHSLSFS
Description: as §1, §2
(§4) Tested compounds were dissolved in 100% DMSO, and obtained stock solutions were serially diluted in the reaction buffer (50 mM Tris pH 7.5, 10 mM MgCl2, 0.25 mM EGTA, 0.1 mM Na3VO4, 0.01% Triton X-100, 2.5 mM DTT). Recombinant kinases JAK1 (ProQinase), JAK2, or JAK3 (Carna Biosciences) were diluted in the dilution buffer (50 mM Tris-HCl pH 7.5, 150 mM NaCl, 10% glycerol, 0.05% Triton X-100, 1 mM DTT) to the final concentration 3 ng/μL (JAK1), 0.1 ng/μL (JAK2), or 0.2 ng/μL (JAK3). 5 μL of obtained solution of the compounds and 5 μL of the solution of respective kinases were added to the well of a 96-well plate. To initiate interaction between tested compounds and an enzyme, the plate was incubated for 10 minutes at 25° C. in a Plate-Thermo-Shaker with orbital stirring at 400 rpm. Wells of a negative control contained all reagents as mentioned above with the exception of tested compounds and kinase, and wells of a positive controls contained all reagents as mentioned above with the exception of tested compounds. Enzymatic reaction was initiated by the addition of 15 μL of the following solution: 5× concentrated reaction buffer (50 mM Tris pH 7.5, 10 mM MgCl2, 0.25 mM EGTA, 0.1 mM Na3VO4, 0.01% Triton X-100, 2.5 mM DTT), water, 30 μM ATP and for particular kinases: JAK1—60 μM peptide IRS-1 (Enzo), JAK2 or JAK3—10 μM peptide IGF-1Rtide (Lipopharm). Then the plate was incubated for 1 hour at 25° C. in a Plate-Thermo-Shaker, with orbital stirring at 400 rpm. Detection of ADP formed in the enzymatic reaction was then performed using ADP-Glo Kinase Assay kit (Promega). For this purpose, to the well of the 96-well plate 25 μL of ADP-Glo Reagent were added, and the plate was incubated for 40 minutes at 25° C. in a Plate-Thermo-Shaker with orbital stirring at 400 rpm. Then to the well of the 96-well plate 50 μL of Kinase Detection Reagent were added and the plate was incubated for 30 minutes at 25° C. in a Plate-Thermo-Shaker with orbital stirring at 400 rpm. After incubation, luminescence intensity was measured using Victor×Light luminometer (Perkin Elmer, Inc.).
as §3
(§5) Averaged results of kinases JAK inhibition activity for selected compounds of the present invention are presented below in Table 1.

Recombinant kinase JAK1 = Recombinant kinase JAK1 (Homo sapiens (Human), UniProt P23458); experiment: In vitro JAK kinase inhibition assay (ADP-Glo), JAK1; assay type: biochemical; conditions: 30 μM ATP, peptide IRS-1, averaged
Chain of Recombinant kinase JAK1 (P23458 whole entry): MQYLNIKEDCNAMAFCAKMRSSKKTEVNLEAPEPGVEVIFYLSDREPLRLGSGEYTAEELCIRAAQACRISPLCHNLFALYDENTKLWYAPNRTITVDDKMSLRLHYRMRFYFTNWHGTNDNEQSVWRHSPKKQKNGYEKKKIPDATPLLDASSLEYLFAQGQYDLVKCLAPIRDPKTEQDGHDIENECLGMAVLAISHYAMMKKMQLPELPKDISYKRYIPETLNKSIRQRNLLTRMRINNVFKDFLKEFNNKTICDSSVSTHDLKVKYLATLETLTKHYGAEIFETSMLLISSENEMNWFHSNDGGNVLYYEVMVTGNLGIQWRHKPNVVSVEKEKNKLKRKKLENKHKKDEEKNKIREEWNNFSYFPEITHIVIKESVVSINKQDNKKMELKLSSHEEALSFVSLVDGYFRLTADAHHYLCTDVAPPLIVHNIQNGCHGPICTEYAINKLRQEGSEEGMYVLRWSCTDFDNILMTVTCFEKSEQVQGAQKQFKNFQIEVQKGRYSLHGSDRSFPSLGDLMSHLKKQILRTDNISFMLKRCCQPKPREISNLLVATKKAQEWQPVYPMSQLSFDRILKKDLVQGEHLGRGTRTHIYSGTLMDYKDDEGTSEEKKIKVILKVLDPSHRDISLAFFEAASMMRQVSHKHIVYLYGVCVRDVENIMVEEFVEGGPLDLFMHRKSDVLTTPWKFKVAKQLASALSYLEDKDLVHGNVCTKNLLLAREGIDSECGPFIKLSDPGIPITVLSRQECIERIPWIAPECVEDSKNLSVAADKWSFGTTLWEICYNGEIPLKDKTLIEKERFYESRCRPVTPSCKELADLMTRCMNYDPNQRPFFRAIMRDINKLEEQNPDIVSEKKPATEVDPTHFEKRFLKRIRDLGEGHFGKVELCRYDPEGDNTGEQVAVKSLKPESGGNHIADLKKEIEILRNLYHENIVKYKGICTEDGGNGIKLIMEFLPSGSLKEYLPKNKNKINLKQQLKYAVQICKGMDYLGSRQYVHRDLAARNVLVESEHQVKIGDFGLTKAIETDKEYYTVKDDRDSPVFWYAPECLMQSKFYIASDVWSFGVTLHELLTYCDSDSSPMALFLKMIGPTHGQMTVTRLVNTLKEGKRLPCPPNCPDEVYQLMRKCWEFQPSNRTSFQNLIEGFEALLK
Description: as §1, §2, §4, §3, §5

TF-1 cells [1] = experiment: TF-1 cells viability in vitro in the presence of IL-4 (JAK1/JAK3 activation); assay type: cell-based; conditions: for IC50: Homo sapiens, TF-1, 20 ng/mL IL-4, 72 hours, ATPlite, read-out: JAK1,3 IL4 (EC50, inhibition of viability of TF-1 cells); for JAK2/JAK1,3 Ratio: ratio of TF-1 viability EC50 with IL3 to EC50 with IL4
Description: (§6) Assay for TF-1 Cells Viability In Vitro
(§7) The effects of the activity of the compounds of the invention were tested in vitro using cells viability assay described below.
(§8) Tested compounds were dissolved in 100% DMSO, and obtained stock solutions were serially diluted in OptiMEM medium (Reduced Serum Medium-Thermo Fisher Scientific). TF-1 cells (DSMZ no.: ACC 334) in culture medium (80% RPMI 1640+20% FBS) ad in the presence of 5 ng/mL IL-3 or 20 ng/mL IL-4 were deposited on 96-well plates in the volume of 90 μl per well, 10 thousands of cells per well. To a well of the 96-well plate 10 μL of the prepared 10× stock solutions of the compounds. Cells on 96-well plates were incubated with the compounds for 72 hours at 37° C., 5% CO2. Subsequently, viability of the cells was measured using ATPlite kit (Perkin Elmer). For this purpose, 50 μL of lysis buffer (mammalian cell lysis solution) were added to a well of the 96-well plate and the plate was incubated for 10 minutes at 25° C. in a plate thermo-shaker with orbital stirring at 600 rpm. Then to a well of the 96-well plate 50 μL of substrate (substrate solution) were added and incubated for 15 minutes at in dark, in a plate thermo-shaker with orbital stirring at 600 rpm. After incubation time, luminescence intensity in a well was measured using Victor×Light luminometer (Perkin Elmer, Inc.).
as §3, with “luminescence intensity measurements” for “luminescence measurement”, “in well” for “in wells”, “control wells EC50” for “control wells, IC50”

TF-1 cells [2] = experiment: TF-1 cells viability in vitro in the presence of IL-3 (JAK2 activation); assay type: cell-based; conditions: Homo sapiens, 5 ng/mL IL-3, 72 hours, ATPlite, read-out: JAK2 IL3 (EC50, inhibition of viability of TF-1 cells)
Description: as §6, §7
as §8, with “TF-1 cells (DSMZ no.: ACC 334) in culture medium (80% RPMI 1640+20% FBS) ad in the presence of 5 ng/mL IL-3 or 20 ng/mL IL-4 were deposited on 96-well plates in the volume of 90 μl per well, 10 thousands of cells per well.” left out
On the basis of luminescence intensity measurements in well containing tested compounds at various concentrations and in control wells EC50 values were determined. These values were determined with Graph Pad software v. […] Each compound was tested in at least 6 repetitions (6 wells) on two 96-well plates, using at least 3 wells of each control.

Chain of Recombinant kinase JAK2 (O60674 whole entry): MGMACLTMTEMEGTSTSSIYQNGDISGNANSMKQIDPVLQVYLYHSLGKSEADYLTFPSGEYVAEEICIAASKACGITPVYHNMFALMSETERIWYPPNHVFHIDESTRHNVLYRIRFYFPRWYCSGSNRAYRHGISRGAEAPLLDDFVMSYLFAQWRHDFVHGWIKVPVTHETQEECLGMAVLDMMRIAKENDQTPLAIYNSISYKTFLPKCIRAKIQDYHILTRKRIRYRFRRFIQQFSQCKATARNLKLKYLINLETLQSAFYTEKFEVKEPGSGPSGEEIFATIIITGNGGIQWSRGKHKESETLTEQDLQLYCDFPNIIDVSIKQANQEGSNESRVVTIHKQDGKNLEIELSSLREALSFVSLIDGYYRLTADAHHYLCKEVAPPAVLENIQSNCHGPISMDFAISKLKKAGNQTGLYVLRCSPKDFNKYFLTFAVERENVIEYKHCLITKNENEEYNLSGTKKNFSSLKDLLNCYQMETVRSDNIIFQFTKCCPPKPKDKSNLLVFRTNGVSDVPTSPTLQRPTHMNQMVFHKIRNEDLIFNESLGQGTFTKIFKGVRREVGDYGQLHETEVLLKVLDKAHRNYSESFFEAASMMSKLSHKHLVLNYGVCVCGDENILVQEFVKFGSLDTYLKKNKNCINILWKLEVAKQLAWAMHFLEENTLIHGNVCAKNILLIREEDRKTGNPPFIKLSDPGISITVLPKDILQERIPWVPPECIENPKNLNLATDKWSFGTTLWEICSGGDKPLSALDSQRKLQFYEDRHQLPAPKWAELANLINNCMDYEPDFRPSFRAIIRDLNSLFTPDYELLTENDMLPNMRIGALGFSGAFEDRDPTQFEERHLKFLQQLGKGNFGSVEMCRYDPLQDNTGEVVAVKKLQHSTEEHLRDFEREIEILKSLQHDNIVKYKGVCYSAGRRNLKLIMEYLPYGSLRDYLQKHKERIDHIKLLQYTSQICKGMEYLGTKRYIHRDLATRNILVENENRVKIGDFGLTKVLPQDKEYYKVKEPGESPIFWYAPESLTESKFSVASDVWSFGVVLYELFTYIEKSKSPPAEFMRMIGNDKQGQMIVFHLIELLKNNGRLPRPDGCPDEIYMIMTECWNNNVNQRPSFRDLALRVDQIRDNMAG

COc1ccc(-c2cc3ncc(C(N)=O)c(N[C@@H]4CCN(c5ccc(C#N)nn5)CC4(C)C)n3n2)cc1 [Example 1, (R)-7-((1-(6-Cyanopyridazin-3-yl)-3,3-dimethylpiperidin-4-yl)amino)-2-(4-methoxy-phenyl)pyrazolo[1,5-a]pyrimidine-6-carboxamide]
IC50 (Recombinant kinase JAK2): 19 nM
IC50 (Recombinant kinase JAK3): 1.2 nM
IC50 (Recombinant kinase JAK1): 1.8 nM
IC50 (TF-1 cells [1]): 350 nM
JAK2/JAK1,3 Ratio (TF-1 cells [1]): 2.4
IC50 (TF-1 cells [2]): 837 nM

COc1ccc(F)c(-c2cc3ncc(C(N)=O)c(N[C@@H]4CCN(c5ccc(C#N)nn5)CC4(C)C)n3n2)c1 [Example 2, (R)-7-((1-(6-Cyanopyridazin-3-yl)-3,3-dimethylpiperidin-4-yl)amino)-2-(2-fluoro-5-methoxyphenyl)pyrazolo[1,5-a]pyrimidine-6-carboxamide]
IC50 (Recombinant kinase JAK2): 59.3 nM
IC50 (Recombinant kinase JAK3): 3.77 nM
IC50 (Recombinant kinase JAK1): 3.74 nM
IC50 (TF-1 cells [1]): 242 nM
JAK2/JAK1,3 Ratio (TF-1 cells [1]): 5
IC50 (TF-1 cells [2]): 1200 nM

CC1(C)CN(c2ccc(C#N)nn2)CC[C@H]1Nc1c(C(N)=O)cnc2cc(-c3cccnc3)nn12 [Example 3, (R)-7-((1-(6-Cyanopyridazin-3-yl)-3,3-dimethylpiperidin-4-yl)amino)-2-(pyridin-3-yl)pyrazolo[1,5-a]pyrimidine-6-carboxamide]
IC50 (Recombinant kinase JAK2): 31.1 nM
IC50 (Recombinant kinase JAK3): 1.58 nM
IC50 (Recombinant kinase JAK1): 4.47 nM

CCOc1ccc(-c2cc3ncc(C(N)=O)c(N[C@@H]4CCN(c5ccc(C#N)nn5)CC4(C)C)n3n2)cn1 [Example 5, (R)-7-((1-(6-Cyanopyridazin-3-yl)-3,3-dimethylpiperidin-4-yl)amino)-2-(6-ethoxy-pyridin-3-yl)pyrazolo[1,5-a]pyridimine-6-carboxamide]
IC50 (Recombinant kinase JAK2): 34.4 nM
IC50 (Recombinant kinase JAK3): 1.8 nM
IC50 (Recombinant kinase JAK1): 8.08 nM

CC1(C)CN(c2ccc(C#N)nn2)CC[C@H]1Nc1c(C(N)=O)cnc2cc(-c3ccc(N)nc3)nn12 [Example 6, (R)-2-(6-Aminopyridin-3-yl)-7-((1-(6-cyanopyridazin-3-yl)-3,3-dimethylpiperidin-4-yl)amino)pyrazolo[1,5-a]pyrimidine-6-carboxamide]
IC50 (Recombinant kinase JAK2): 2.98 nM
IC50 (Recombinant kinase JAK3): 0.16 nM
IC50 (Recombinant kinase JAK1): 0.38 nM
IC50 (TF-1 cells [1]): 361 nM
JAK2/JAK1,3 Ratio (TF-1 cells [1]): 9.2
IC50 (TF-1 cells [2]): 3330 nM

COc1ncc(-c2cc3ncc(C(N)=O)c(N[C@@H]4CCN(c5ccc(C#N)nn5)CC4(C)C)n3n2)cn1 [Example 8, (R)-7-((1-(6-Cyanopyridazin-3-yl)-3,3-dimethylpiperidin-4-yl)amino)-2-(2-methoxy-pyrimidin-5-yl)pyrazolo[1,5-a]pyrimidine-6-carboxamide]
IC50 (Recombinant kinase JAK2): 26.8 nM
IC50 (Recombinant kinase JAK3): 2.24 nM
IC50 (Recombinant kinase JAK1): 8.54 nM
IC50 (TF-1 cells [1]): 203 nM
JAK2/JAK1,3 Ratio (TF-1 cells [1]): 10
IC50 (TF-1 cells [2]): 2020 nM

CCOc1ncc(-c2cc3ncc(C(N)=O)c(N[C@@H]4CCN(c5ccc(C#N)nn5)CC4(C)C)n3n2)cn1 [Example 9, (R)-7-((1-(6-Cyanopyridazin-3-yl)-3,3-dimethylpiperidin-4-yl)amino)-2-(2-ethoxy-pyrimidin-5-yl)pyrazolo[1,5-a]pyrimidine-6-carboxamide]
IC50 (Recombinant kinase JAK2): 89.6 nM
IC50 (Recombinant kinase JAK3): 18.8 nM
IC50 (Recombinant kinase JAK1): 47.5 nM

CC1(C)CN(c2ccc(C#N)nn2)CC[C@H]1Nc1c(C(N)=O)cnc2cc(-c3ccc(F)nc3)nn12 [Example 10, (R)-7-((1-(6-Cyanopyridazin-3-yl)-3,3-dimethylpiperidin-4-yl)amino)-2-(6-fluoro-pyridin-3-yl)pyrazolo[1,5-a]pyrimidine-6-carboxamide]
IC50 (Recombinant kinase JAK2): 12.8 nM
IC50 (Recombinant kinase JAK3): 0.6 nM
IC50 (Recombinant kinase JAK1): 2.37 nM
IC50 (TF-1 cells [1]): 112 nM
JAK2/JAK1,3 Ratio (TF-1 cells [1]): 11.5
IC50 (TF-1 cells [2]): 1280 nM
